One may read the Kd as the equilibrium constant for the complex coming apart. The Ki is a dissociation constant, usually derived from enzyme kinetics or from competition with a known ligand.

SMILES strings stand for the structures.

In patent US20120165331A1, “Di/tri-aza-spiro-C9-C11alkanes” (priority 2010, published 2012) one finds Kd and Ki data, which are given here for nine molecules.

Assay [1] deals with T1, human orexin 1 receptor (Homo sapiens, UniProt O43613).
T1 construct: expressed in transfected cells
T1 sequence (O43613 1-425): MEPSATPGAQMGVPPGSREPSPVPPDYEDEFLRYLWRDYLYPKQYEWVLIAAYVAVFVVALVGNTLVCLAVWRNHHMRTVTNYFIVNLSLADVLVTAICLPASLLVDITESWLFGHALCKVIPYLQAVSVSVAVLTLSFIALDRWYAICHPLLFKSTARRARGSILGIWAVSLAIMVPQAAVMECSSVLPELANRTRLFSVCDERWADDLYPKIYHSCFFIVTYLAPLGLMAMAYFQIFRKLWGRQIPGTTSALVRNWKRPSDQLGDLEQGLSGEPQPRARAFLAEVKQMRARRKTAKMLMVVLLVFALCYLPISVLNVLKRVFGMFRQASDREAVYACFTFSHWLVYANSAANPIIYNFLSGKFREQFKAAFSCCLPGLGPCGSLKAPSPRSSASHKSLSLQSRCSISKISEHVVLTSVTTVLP
The assay can be described thus: Radioligand binding assay ([3H]-SB649868 competition), human orexin 1 receptor. To be noted: radioligand [3H]-SB649868; read-out: Binding hOx1R Kd. The procedure:
Radioligand Binding Assay
For crude cell membrane preparations, cells (CHO, Chinese hamster ovary or HEK, human embryonic kidney) expressing human orexin 1 or human orexin 2 receptors, were washed with HEPES (10 mM, pH 7.5), scraped off the culture plates with the same buffer, and centrifuged at 4° C. for 5 min at 2500×g. The cell pellet was either stored at −80° C. or used directly. Before the experiments, cell membranes were re-suspended in binding assay buffer (10 mM HEPES, 0.5% (w/v) bovine serum albumin, pH 7.5) by homogenisation with a Polytron homogeniser at 50 Hz for 20 s. Cell membranes were also used as made available by commercial providers.
Bound radioactivity was measured, and data were analysed with the program XLFIT or Graphpad Prism. Protein concentration was determined according to the Bradford/BioRad Protein Assay Kit.
In competition experiments, cell homogenates (150 μl) were incubated in assay buffer (10 mM HEPES, pH 7.5, 0.5% (w/v) bovine serum albumin, 5 mM MgCl2, 1 mMCaCl2, and tween 0.05%) for 1 h at room temperature with about 1 nM of the radioligand [^3H]-SB649868, 66 Ci/mmole, 50 μl), and with various concentrations of compounds of the invention (50 μl) in triplicates; non-specific binding was determined in the presence of almorexant (10 μM). Reactions were terminated by vacuum filtration, 3 washes of ice cold wash buffer (Tris-HCl pH 7.4/10 mM, with NaCl 154 mM). Competition data is expressed in Table 1 as Kd [μM].

In assay [2] the target is T1, human orexin 1 receptor. The assay can be described thus: Calcium accumulation in cells (FLIPR), antagonism of orexin A, human orexin 1 receptor. Type of assay: cell-based. To be noted: calcium accumulation, antagonism of orexin A, Cheng-Prusoff corrected; read-out: FLIPR hOx1R Ki.
Assay [3] concerns the target T2, human orexin 2 receptor (Homo sapiens, UniProt O43614).
T2 construct: expressed in transfected cells
T2 sequence (O43614 1-444): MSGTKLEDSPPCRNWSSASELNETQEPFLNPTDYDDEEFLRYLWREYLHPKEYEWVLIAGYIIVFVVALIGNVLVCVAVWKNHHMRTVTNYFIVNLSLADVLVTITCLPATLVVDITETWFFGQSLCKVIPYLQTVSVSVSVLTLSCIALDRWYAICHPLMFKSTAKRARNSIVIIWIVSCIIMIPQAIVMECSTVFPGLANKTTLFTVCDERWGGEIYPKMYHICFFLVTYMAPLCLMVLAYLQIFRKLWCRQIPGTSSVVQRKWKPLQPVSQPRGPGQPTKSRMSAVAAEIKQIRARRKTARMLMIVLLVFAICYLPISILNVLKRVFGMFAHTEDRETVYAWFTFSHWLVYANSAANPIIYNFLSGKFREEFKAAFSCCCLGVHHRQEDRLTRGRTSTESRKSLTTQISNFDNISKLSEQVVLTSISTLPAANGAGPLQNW
The assay can be described thus: Radioligand binding assay ([3H]-SB649868 competition), human orexin 2 receptor. To be noted: radioligand [3H]-SB649868; read-out: Binding hOx2R Kd. In a few lines:
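Competition binding against roughly 1 nM [3H]-SB649868, run in triplicate for 1 h at room temperature on CHO or HEK membranes bearing human receptor (10 mM HEPES pH 7.5, 0.5% BSA, 5 mM MgCl2, 1 mM CaCl2, 0.05% tween). Bound radioactivity after vacuum filtration; almorexant 10 μM for non-specific binding; expressed as Kd.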

Assay [4] concerns the target T2, human orexin 2 receptor. The assay can be described thus: Calcium accumulation in cells (FLIPR), antagonism of orexin A, human orexin 2 receptor. Type of assay: cell-based. To be noted: calcium accumulation, antagonism of orexin A, Cheng-Prusoff corrected; read-out: FLIPR hOx2R Ki.

Consider `Cc1cc(C)nc(N2CCC3(CC2)OCCN(Cc2nn(C)cc2-c2ccccc2)C3=O)n1` [Example 2.11, 9-(4,6-Dimethylpyrimidin-2-yl)-4-((1-methyl-4-phenyl-1H-pyrazol-3-yl)methyl)-1-oxa-4,9-diazaspiro[5.5]undecan-5-one], for which the Kd on human orexin 1 receptor [1] was 3180 nM; at human orexin 2 receptor [3], 229 nM. Further, the Ki was 2320 nM on human orexin 1 receptor [2] and 75 nM at human orexin 2 receptor [4].

For the molecule `Cc1cc(C)nc(N2CCC3(CC2)NCCN(Cc2nn(C)cc2-c2cccc(OCCOC(C)C)c2)C3=O)n1` [Example 1.72, 9-(4,6-dimethyl-pyrimidin-2-yl)-4-((4-(3-(2-iso-propoxyethoxy)phenyl)-1-methyl-1H-pyrazol-3-yl)methyl)-1,4,9-triazaspiro[5.5] undecan-5-one], the dissociation constant (Kd) at human orexin 1 receptor [1] turned out to be 846 nM; on human orexin 2 receptor [3], 203 nM. For the same molecule, the Ki on human orexin 1 receptor [2] is 1590 nM; on human orexin 2 receptor [4], 49 nM.

For the molecule `COc1cccc(-c2sc(C)nc2CN2CCNC3(CCN(c4nc(C)cc(OC)n4)CC3)C2=O)c1` [Example 1.26, 9-(4-Methoxy-6-methylpyrimidin-2-yl)-4-((5-(3-methoxyphenyl)-2-methylthiazol-4-yl)methyl)-1,4,9-triazaspiro[5.5] undecan-5-one], the results for the Kd on human orexin 1 receptor [1] and at human orexin 2 receptor [3] were 352 nM and 49 nM, respectively. Also, the figures for the Ki at human orexin 1 receptor [2] and on human orexin 2 receptor [4] were 391 nM and 8 nM, respectively.

In the case of `COc1cccc(-c2ocnc2CN2CCNC3(CCN(c4nc(C)cc(C#N)n4)CC3)C2=O)c1` [Example 1.11, 2-(4-((5-(3-Methoxyphenyl)oxazol-4-yl)methyl)-5-oxo-1,4,9-triazaspiro[5.5]undecan-9-yl)-6-methylpyrimidine-4-carbonitrile], the Kd on human orexin 1 receptor [1] is 2220 nM; at human orexin 2 receptor [3], 37 nM. The Ki at human orexin 1 receptor [2] came to 2660 nM; on human orexin 2 receptor [4] it was 10 nM.

For `COc1cccc(-c2ocnc2CN2CCOC3(CCN(c4nc(C)cc(OC)n4)CC3)C2=O)c1` [Example 2.20, 9-(4-Methoxy-6-methylpyrimidin-2-yl)-4-((5-(3-methoxyphenyl)oxazol-4-yl)methyl)-1-oxa-4,9-diazaspiro[5.5]undecan-5-one], the results for the Kd on human orexin 1 receptor [1] and on human orexin 2 receptor [3] were 57 nM and 7 nM, respectively. Besides, the Ki at human orexin 1 receptor [2] came to 43 nM; on human orexin 2 receptor [4] it was 2 nM.

For `COc1cccc(-c2nn(C)nc2CN2CCNC3(CCN(c4nc(C)cc(C)n4)CC3)C2=O)c1` [Example 1.5, 9-(4,6-Dimethylpyrimidin-2-yl)-4-((5-(3-methoxyphenyl)-2-methyl-2H-1,2,3-triazol-4-yl)methyl)-1,4,9-triazaspiro[5.5] undecan-5-one], the values for the Kd at human orexin 1 receptor [1] and on human orexin 2 receptor [3] were 928 nM and 31 nM, respectively. Moreover, the inhibition constant Ki on human orexin 1 receptor [2] was 1490 nM; on human orexin 2 receptor [4], 7 nM.

Turning to `Cc1ccc(C)c(CN2C(=O)OCC23CCN(c2cnc4ccccc4n2)CC3)c1` [Example 8.20, 1-(2,5-Dimethylbenzyl)-8-(quinoxalin-2-yl)-3-oxa-1,8-diazaspiro[4.5]decan-2-one], the values for the Kd on human orexin 1 receptor [1] and on human orexin 2 receptor [3] were 171 nM and 152 nM, respectively. Besides, the Ki on human orexin 1 receptor [2] was 141 nM; at human orexin 2 receptor [4], 14 nM.

Take `COc1cc(C)nc(N2CCC3(CCN(Cc4ccccc4-c4nc(C)no4)C3=O)CC2)n1` [Example 3.20, 8-(4-Methoxy-6-methyl-pyrimidin-2-yl)-2-[2-(3-methyl-[1,2,4]oxadiazol-5-yl)-benzyl]-2,8-diaza-spiro[4.5]decan-1-one]: the figures for the Kd on human orexin 1 receptor [1] and on human orexin 2 receptor [3] were 7670 nM and 328 nM, respectively. Besides, the figures for the Ki on human orexin 1 receptor [2] and at human orexin 2 receptor [4] were 1640 nM and 43 nM, respectively.

In the case of `Cc1ccnc(N2CCC3(CCCN(Cc4c[nH]c5ccccc45)C3=O)C2)n1` (stereo not drawn) [Example 7.11, 7-((1H-indol-3-yl)methyl)-2-(4-methylpyrimidin-2-yl)-2,7-diazaspiro[4.5]decan-6-one], the Kd at human orexin 1 receptor [1] worked out at 89 nM; on human orexin 2 receptor [3], 73 nM. In addition, the Ki was determined as 304 nM on human orexin 1 receptor [2] and 38 nM at human orexin 2 receptor [4].
